Measurements from patent US20220265845A1, “AMINOTHIOLESTER COMPOUNDS AND USES THEREOF” (ADVANCED BIODESIGN, priority 2019, published 2022).

Experiments:
Assay type in all cases: biochemical
[1] = molecular target: T1, Human recombinant ALDH3A1 (Homo sapiens, UniProt P30838); assay: Enzymatic assay with human recombinant ALDH3A1 (NADP+, 4-NBA), IC50; details: substrate 4-Nitrobenzaldehyde, 37° C.
T1 sequence (P30838 1-453): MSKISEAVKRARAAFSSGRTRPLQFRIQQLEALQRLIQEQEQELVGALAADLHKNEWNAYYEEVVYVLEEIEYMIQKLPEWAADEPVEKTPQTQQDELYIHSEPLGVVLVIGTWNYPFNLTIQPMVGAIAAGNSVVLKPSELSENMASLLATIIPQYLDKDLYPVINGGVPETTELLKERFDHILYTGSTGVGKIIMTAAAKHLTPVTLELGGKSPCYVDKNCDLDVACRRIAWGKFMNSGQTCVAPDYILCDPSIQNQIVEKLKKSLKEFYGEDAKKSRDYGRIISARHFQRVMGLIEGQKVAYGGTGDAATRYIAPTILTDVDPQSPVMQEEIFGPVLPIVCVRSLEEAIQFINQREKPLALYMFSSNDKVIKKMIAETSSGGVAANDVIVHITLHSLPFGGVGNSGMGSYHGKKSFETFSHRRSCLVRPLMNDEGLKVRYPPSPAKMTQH
Procedure: For ALDH3A1 (1 mg/mL), 10 μL of enzyme was added into a reaction buffer containing 50 mM Tris, 5 mM DTT, pH 8, plus 40 mM Nicotinamide adenine dinucleotide phosphate (oxidized form, NADP^+) and 4-Nitrobenzaldehyde (4-NBA) (Sigma-.Aldrich). Internal standards were prepared with Nicotinamide adenine dinucleotide phosphate reduced form (NADPH, 5 μM, Sigma-Aldrich) in Reaction Buffer (50 mM Tris, 5 mM DTT, pH 8).
Time-dependent inhibition assays were performed for 0-2-5-10-15-20-30-45-60 min at 37° C. in 1 mL-quartz cuvette. The formation of NADH was monitored, reading samples at excitation wavelength=340 nm/emission wavelength=460 nm (fluorescence) for at least 600 sec using Cary Eclipse Varian fluorimeter.
Negative control consisted in the same reactions except that enzyme was not added (enzyme blank). To determine the slope for enzyme blank and calculate product concentration (Unit of fluorescence) the following formulae was used: […]
where Cst is the standard NADH concentration, Fst is the standard fluorescence and dF/dt is the slope of the time dependent fluorescence (S. Sotobodowska et al, 2012). The specific activity of the enzymes (μmol/min·mg-U/mg) in the absence of presence of inhibitors was calculated as follows: […]

[2] = molecular target: T2, Human recombinant ALDH1A1 (Homo sapiens, UniProt P00352); assay: Kinetic parameters and inhibition type from Kobs versus inhibitor concentration plots; details: for kinact/KI: from Kobs versus [I] plots
T2 construct: purchased Creative BioMart, NY, USA
T2 sequence (P00352 1-501): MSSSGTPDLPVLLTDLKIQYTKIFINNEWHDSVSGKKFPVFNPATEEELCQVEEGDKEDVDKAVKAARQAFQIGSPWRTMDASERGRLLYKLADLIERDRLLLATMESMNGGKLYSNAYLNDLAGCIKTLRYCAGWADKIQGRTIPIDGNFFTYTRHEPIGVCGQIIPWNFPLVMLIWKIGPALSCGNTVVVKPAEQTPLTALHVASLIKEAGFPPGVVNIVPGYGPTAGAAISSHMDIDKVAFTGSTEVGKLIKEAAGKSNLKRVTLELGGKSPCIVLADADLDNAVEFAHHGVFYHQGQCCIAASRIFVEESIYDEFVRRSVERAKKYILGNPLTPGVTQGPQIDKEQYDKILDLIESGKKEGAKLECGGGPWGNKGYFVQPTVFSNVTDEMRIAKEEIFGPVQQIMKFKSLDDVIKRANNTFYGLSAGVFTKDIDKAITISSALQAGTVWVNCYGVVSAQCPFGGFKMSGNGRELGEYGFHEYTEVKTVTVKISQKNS
Procedure: (§1) The kinetic data are expressed as the mean±standard error from three independent determination. Kinact/Ki was determined from Kobs versus concentration of the inhibitor [I] plots. […] The Kobs were obtained from negative exponential fit using non-linear regression program GraFit 5.0 (Erithacus software).
(§2) To determine the inhibition mechanisms of the tested compounds for each isoenzyme, the corresponding Kobs were calculated as mentioned above, plotting product concentration vs time incubation of the enzymes with the test compounds at 300 μM, 200 μM, 100 μM, 50 μM, 20 μM and 10 μM. The kobs were obtained for each concentration of inhibitor tested, from the negative exponential fit using non-linear regression program GraFit 5.0 (Erithacus software). Finally, the kinetic parameter of kinact/KI was determined from the plot of kobs versus the corresponding concentration of inhibitor. The slope of the linear fit of data indicated the rate constant in μM^−1·min^−1.

[3] = molecular target: T3, Human recombinant ALDH1A3 (Homo sapiens, UniProt P47895); assay: as above; details: for Specificity of interaction with ALDH1A3: compared with DIMATE; for kinact/KI: from Kobs versus [I] plots
T3 construct: purchased Creative BioMart, NY, USA
T3 sequence (P47895 1-512): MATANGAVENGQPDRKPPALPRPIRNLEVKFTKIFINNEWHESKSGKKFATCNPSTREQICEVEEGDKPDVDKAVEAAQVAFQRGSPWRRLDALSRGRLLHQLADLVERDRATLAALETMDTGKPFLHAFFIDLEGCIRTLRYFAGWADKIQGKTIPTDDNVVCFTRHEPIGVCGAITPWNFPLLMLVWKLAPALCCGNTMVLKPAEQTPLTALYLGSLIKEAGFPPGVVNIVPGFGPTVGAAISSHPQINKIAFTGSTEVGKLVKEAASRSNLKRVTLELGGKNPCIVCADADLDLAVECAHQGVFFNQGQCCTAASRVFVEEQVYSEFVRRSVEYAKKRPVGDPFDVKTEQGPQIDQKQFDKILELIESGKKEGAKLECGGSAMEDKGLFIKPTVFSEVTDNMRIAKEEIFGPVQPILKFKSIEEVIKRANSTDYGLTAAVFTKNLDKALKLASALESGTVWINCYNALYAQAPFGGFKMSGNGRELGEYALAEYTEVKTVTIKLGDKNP
Procedure: as §1, §2

[4] = molecular target: T1, Human recombinant ALDH3A1; assay: as above; details: for Ki: printed in the Kinact/Ki column in place of Kinact/Ki
Procedure: as §1, §2

IC50 [1] [µM]	kinact/KI [2] [M⁻¹ s⁻¹]	ALDH1A3 Inhibition Type [3]	Specificity of interaction with ALDH1A3 [3]	kinact/KI [3] [M⁻¹ s⁻¹]	Ki [4] [µM]	ALDH1A1 Inhibition Type [2]	kinact/KI ([4]; from Kobs versus [I] plots) [M⁻¹ s⁻¹]	Compound
242 ± 11	8.33	specific	higher specificity	642	233	–	–	CSC(=O)C#CC(C)(C)N(C)CCOCc1ccccc1 [Example 3, S-methyl 4-[2-benzyloxyethyl(methyl)amino]-4-methyl-pent-2-ynethioate]
303 ± 46	15	non-specific affinity label	–	28.3	253	specific	–	CSC(=O)C#CC(C)(C)N(C)C [DIMATE, S-methyl 4-(dimethylamino)-4-methylpent-2-ynethioate, reference compound]
143 ± 2	61.7	specific	higher specificity	197	–	–	5	CSC(=O)C#CC(C)(C)N(C)CCOCc1ccc(C)c(C)c1 [Example 5, S-methyl 4-[2-[(3,4-dimethylphenyl)methoxy]ethyl-methyl-amino]-4-methyl-pent-2-ynethioate]
